Measured values reported in patent US8192962B2, “Processes for detecting toxic substances” (Daikin Industries, Ltd., priority 2001, dated 2012).

Test system: Stress protein genes
Assay: DNA chip mRNA expression in yeast, stress protein genes (Table 6)
Format: cell-based, Saccharomyces cerevisiae S288C
Outline: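 S. cerevisiae S288C grown at 25° C in YPD were exposed in log phase for two hours to one toxic chemical at a growth-inhibiting, non-lethal concentration; untreated cells served as control. Poly(A) mRNA was reverse-transcribed with Cy3/Cy5-dUTP and hybridized to a whole-genome yeast DNA chip at 65° C for over 12 hours; values are fluorescence ratios versus untreated.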

SMILES: CCCCCCCCCCCCc1ccc(S(=O)(=O)[O-])cc1.[Na+] [(17), sodium dodecylbenzosulfonate]
- The level of expressed mRNA in the presence of chemical substance/The level of expressed mRNA in the absence of chemical substance (yeast gene YAL005C): 0.8
- The level of expressed mRNA in the presence of chemical substance/The level of expressed mRNA in the absence of chemical substance (yeast gene YAL015C): 1.1
- The level of expressed mRNA in the presence of chemical substance/The level of expressed mRNA in the absence of chemical substance (yeast gene YBL075C): 1.2
- The level of expressed mRNA in the presence of chemical substance/The level of expressed mRNA in the absence of chemical substance (yeast gene YBL093C): 1.4
- The level of expressed mRNA in the presence of chemical substance/The level of expressed mRNA in the absence of chemical substance (yeast gene YBR044C): 0.9
- The level of expressed mRNA in the presence of chemical substance/The level of expressed mRNA in the absence of chemical substance (yeast gene YBR054W): 0.7
- The level of expressed mRNA in the presence of chemical substance/The level of expressed mRNA in the absence of chemical substance (yeast gene YBR067C): 0.5
- The level of expressed mRNA in the presence of chemical substance/The level of expressed mRNA in the absence of chemical substance (yeast gene YBR072W): 1.8
- The level of expressed mRNA in the presence of chemical substance/The level of expressed mRNA in the absence of chemical substance (yeast gene YBR126C): 1.5
- The level of expressed mRNA in the presence of chemical substance/The level of expressed mRNA in the absence of chemical substance (yeast gene YBR169C): 1.3
- The level of expressed mRNA in the presence of chemical substance/The level of expressed mRNA in the absence of chemical substance (yeast gene YCL035C): 2.6
- The level of expressed mRNA in the presence of chemical substance/The level of expressed mRNA in the absence of chemical substance (yeast gene YCR021C): 0.7
- The level of expressed mRNA in the presence of chemical substance/The level of expressed mRNA in the absence of chemical substance (yeast gene YCR060W): 1.2
- The level of expressed mRNA in the presence of chemical substance/The level of expressed mRNA in the absence of chemical substance (yeast gene YCR083W): 1.3
- The level of expressed mRNA in the presence of chemical substance/The level of expressed mRNA in the absence of chemical substance (yeast gene YDL022W): 1.0
- The level of expressed mRNA in the presence of chemical substance/The level of expressed mRNA in the absence of chemical substance (yeast gene YDL025C): 1.0
- The level of expressed mRNA in the presence of chemical substance/The level of expressed mRNA in the absence of chemical substance (yeast gene YDR033W): 0.7
- The level of expressed mRNA in the presence of chemical substance/The level of expressed mRNA in the absence of chemical substance (yeast gene YDR077W): 1.4
- The level of expressed mRNA in the presence of chemical substance/The level of expressed mRNA in the absence of chemical substance (yeast gene YDR098C): 1.0
- The level of expressed mRNA in the presence of chemical substance/The level of expressed mRNA in the absence of chemical substance (yeast gene YDR155C): 1.2
- The level of expressed mRNA in the presence of chemical substance/The level of expressed mRNA in the absence of chemical substance (yeast gene YDR258C): 1.3
- The level of expressed mRNA in the presence of chemical substance/The level of expressed mRNA in the absence of chemical substance (yeast gene YDR293C): 1.4
- The level of expressed mRNA in the presence of chemical substance/The level of expressed mRNA in the absence of chemical substance (yeast gene YDR436W): 0.9
- The level of expressed mRNA in the presence of chemical substance/The level of expressed mRNA in the absence of chemical substance (yeast gene YDR513W): 1.3
- The level of expressed mRNA in the presence of chemical substance/The level of expressed mRNA in the absence of chemical substance (yeast gene YDR519W): 1.8
- The level of expressed mRNA in the presence of chemical substance/The level of expressed mRNA in the absence of chemical substance (yeast gene YEL030W): 0.9
- The level of expressed mRNA in the presence of chemical substance/The level of expressed mRNA in the absence of chemical substance (yeast gene YEL039C): 0.7
- The level of expressed mRNA in the presence of chemical substance/The level of expressed mRNA in the absence of chemical substance (yeast gene YER042W): 0.7
- The level of expressed mRNA in the presence of chemical substance/The level of expressed mRNA in the absence of chemical substance (yeast gene YER057C): 1.1
- The level of expressed mRNA in the presence of chemical substance/The level of expressed mRNA in the absence of chemical substance (yeast gene YER103W): 1.4
- The level of expressed mRNA in the presence of chemical substance/The level of expressed mRNA in the absence of chemical substance (yeast gene YER125W): 1.0
- The level of expressed mRNA in the presence of chemical substance/The level of expressed mRNA in the absence of chemical substance (yeast gene YFL014W): 1.5
- The level of expressed mRNA in the presence of chemical substance/The level of expressed mRNA in the absence of chemical substance (yeast gene YFL016C): 1.2
- The level of expressed mRNA in the presence of chemical substance/The level of expressed mRNA in the absence of chemical substance (yeast gene YFL020C): 1.5
- The level of expressed mRNA in the presence of chemical substance/The level of expressed mRNA in the absence of chemical substance (yeast gene YFR052W): 1.2
- The level of expressed mRNA in the presence of chemical substance/The level of expressed mRNA in the absence of chemical substance (yeast gene YGL073W): 2.5
- The level of expressed mRNA in the presence of chemical substance/The level of expressed mRNA in the absence of chemical substance (yeast gene YGL115W): 0.8
- The level of expressed mRNA in the presence of chemical substance/The level of expressed mRNA in the absence of chemical substance (yeast gene YGL181W): 1.0
- The level of expressed mRNA in the presence of chemical substance/The level of expressed mRNA in the absence of chemical substance (yeast gene YGR088W): 0.9
- The level of expressed mRNA in the presence of chemical substance/The level of expressed mRNA in the absence of chemical substance (yeast gene YHL028W): 1.6
- The level of expressed mRNA in the presence of chemical substance/The level of expressed mRNA in the absence of chemical substance (yeast gene YHL046C): 0.9
- The level of expressed mRNA in the presence of chemical substance/The level of expressed mRNA in the absence of chemical substance (yeast gene YHR030C): 2.0
- The level of expressed mRNA in the presence of chemical substance/The level of expressed mRNA in the absence of chemical substance (yeast gene YHR057C): 1.6
- The level of expressed mRNA in the presence of chemical substance/The level of expressed mRNA in the absence of chemical substance (yeast gene YHR104W): 1.9
- The level of expressed mRNA in the presence of chemical substance/The level of expressed mRNA in the absence of chemical substance (yeast gene YIL011W): 0.8
- The level of expressed mRNA in the presence of chemical substance/The level of expressed mRNA in the absence of chemical substance (yeast gene YIL033C): 1.0
- The level of expressed mRNA in the presence of chemical substance/The level of expressed mRNA in the absence of chemical substance (yeast gene YIR037W): 1.7
- The level of expressed mRNA in the presence of chemical substance/The level of expressed mRNA in the absence of chemical substance (yeast gene YIR038C): 2.8
- The level of expressed mRNA in the presence of chemical substance/The level of expressed mRNA in the absence of chemical substance (yeast gene YJL128C): 1.0
- The level of expressed mRNA in the presence of chemical substance/The level of expressed mRNA in the absence of chemical substance (yeast gene YJL158C): 1.4
- The level of expressed mRNA in the presence of chemical substance/The level of expressed mRNA in the absence of chemical substance (yeast gene YJL159W): 1.4
- The level of expressed mRNA in the presence of chemical substance/The level of expressed mRNA in the absence of chemical substance (yeast gene YJL165C): 1.3
- The level of expressed mRNA in the presence of chemical substance/The level of expressed mRNA in the absence of chemical substance (yeast gene YJR045C): 0.7
- The level of expressed mRNA in the presence of chemical substance/The level of expressed mRNA in the absence of chemical substance (yeast gene YJR090C): 1.1
- The level of expressed mRNA in the presence of chemical substance/The level of expressed mRNA in the absence of chemical substance (yeast gene YKL161C): 1.4
- The level of expressed mRNA in the presence of chemical substance/The level of expressed mRNA in the absence of chemical substance (yeast gene YKL163W): 0.8
- The level of expressed mRNA in the presence of chemical substance/The level of expressed mRNA in the absence of chemical substance (yeast gene YKL164C): 0.8
- The level of expressed mRNA in the presence of chemical substance/The level of expressed mRNA in the absence of chemical substance (yeast gene YKL210W): 0.7
- The level of expressed mRNA in the presence of chemical substance/The level of expressed mRNA in the absence of chemical substance (yeast gene YKR053C): 2.8
- The level of expressed mRNA in the presence of chemical substance/The level of expressed mRNA in the absence of chemical substance (yeast gene YLL024C): 0.5
- The level of expressed mRNA in the presence of chemical substance/The level of expressed mRNA in the absence of chemical substance (yeast gene YLL026W): 1.7
- The level of expressed mRNA in the presence of chemical substance/The level of expressed mRNA in the absence of chemical substance (yeast gene YLL039C): 1.6
- The level of expressed mRNA in the presence of chemical substance/The level of expressed mRNA in the absence of chemical substance (yeast gene YLL060C): 1.9
- The level of expressed mRNA in the presence of chemical substance/The level of expressed mRNA in the absence of chemical substance (yeast gene YLR006C): 1.6
- The level of expressed mRNA in the presence of chemical substance/The level of expressed mRNA in the absence of chemical substance (yeast gene YLR109W): 1.1
- The level of expressed mRNA in the presence of chemical substance/The level of expressed mRNA in the absence of chemical substance (yeast gene YLR259C): 0.8
- The level of expressed mRNA in the presence of chemical substance/The level of expressed mRNA in the absence of chemical substance (yeast gene YML007W): 1.0
- The level of expressed mRNA in the presence of chemical substance/The level of expressed mRNA in the absence of chemical substance (yeast gene YML070W): 1.2
- The level of expressed mRNA in the presence of chemical substance/The level of expressed mRNA in the absence of chemical substance (yeast gene YMR021C): 3.3
- The level of expressed mRNA in the presence of chemical substance/The level of expressed mRNA in the absence of chemical substance (yeast gene YMR173W): 1.9
- The level of expressed mRNA in the presence of chemical substance/The level of expressed mRNA in the absence of chemical substance (yeast gene YMR186W): 0.7
- The level of expressed mRNA in the presence of chemical substance/The level of expressed mRNA in the absence of chemical substance (yeast gene YNL064C): 0.7
- The level of expressed mRNA in the presence of chemical substance/The level of expressed mRNA in the absence of chemical substance (yeast gene YNL160W): 1.0
- The level of expressed mRNA in the presence of chemical substance/The level of expressed mRNA in the absence of chemical substance (yeast gene YNL241C): 1.0
- The level of expressed mRNA in the presence of chemical substance/The level of expressed mRNA in the absence of chemical substance (yeast gene YNR076W): 1.5
- The level of expressed mRNA in the presence of chemical substance/The level of expressed mRNA in the absence of chemical substance (yeast gene YOL064C): 1.2
- The level of expressed mRNA in the presence of chemical substance/The level of expressed mRNA in the absence of chemical substance (yeast gene YOL161C): 1.1
- The level of expressed mRNA in the presence of chemical substance/The level of expressed mRNA in the absence of chemical substance (yeast gene YOR008C): 0.8
- The level of expressed mRNA in the presence of chemical substance/The level of expressed mRNA in the absence of chemical substance (yeast gene YOR009W): 0.9
- The level of expressed mRNA in the presence of chemical substance/The level of expressed mRNA in the absence of chemical substance (yeast gene YOR010C): 1.4
- The level of expressed mRNA in the presence of chemical substance/The level of expressed mRNA in the absence of chemical substance (yeast gene YOR027W): 0.9
- The level of expressed mRNA in the presence of chemical substance/The level of expressed mRNA in the absence of chemical substance (yeast gene YOR208W): 1.6
- The level of expressed mRNA in the presence of chemical substance/The level of expressed mRNA in the absence of chemical substance (yeast gene YPL059W): 1.8
- The level of expressed mRNA in the presence of chemical substance/The level of expressed mRNA in the absence of chemical substance (yeast gene YPL106C): 0.5
- The level of expressed mRNA in the presence of chemical substance/The level of expressed mRNA in the absence of chemical substance (yeast gene YPL140C): 0.9
- The level of expressed mRNA in the presence of chemical substance/The level of expressed mRNA in the absence of chemical substance (yeast gene YPL194W): 1.0
- The level of expressed mRNA in the presence of chemical substance/The level of expressed mRNA in the absence of chemical substance (yeast gene YPL223C): 1.0
- The level of expressed mRNA in the presence of chemical substance/The level of expressed mRNA in the absence of chemical substance (yeast gene YPL240C): 0.8
- The level of expressed mRNA in the presence of chemical substance/The level of expressed mRNA in the absence of chemical substance (yeast gene YPR005C): 1.0
- The level of expressed mRNA in the presence of chemical substance/The level of expressed mRNA in the absence of chemical substance (yeast gene YPR026W): 0.9
